Experimental data from patent US20190374481A1, “ADMINISTRATION REGIMEN FOR A PHARMACEUTICAL PATCH COMPRISING LIDOCAINE AND DICLOFENAC” (TEIKOKU SEIYAKU CO., LTD., priority 2017, published 2019).

Key:
CFA-hindpaw inflammation = assay: CFA-hindpaw inflammation, paw pressure test (CFA-PPT), intraperitoneal injection; assay type: in vivo, rat
Description: An interaction study was performed as a single dose study in the CFA-hindpaw inflammation, paw pressure test.
In comparative example 1 and inventive examples 1 to 4 described below, a compound or combination of compounds was administered by intraperitoneal injection (FIGS. 1 to 9).
(§1) The pain was measured by pressing a pointer on the inflamed paw. The pointer exerts a force, increasing at a constant rate, monitored by a linear scale. Pain is deemed to be perceived one the rat starts to withdraw the paw. This value (withdrawal threshold in gram) is the pressure at which the animal feels pain (cut-off 450 g). Efficacy of the test compounds is expressed as a percent change of withdrawal threshold after compound administration to the pre-value (withdrawal threshold before compound administration).

[1] = test system: CFA-induced edema of paw / mechanical-hyperalgesia; assay: CFA-hindpaw inflammation, paw pressure test (CFA-PPT), topical application to the paw; assay type: in vivo, rat
Description: In comparative example 2 and inventive examples 5 to 8 as described below, a compound or combination of compounds was administered topically to the paw by means of an ointment or solution (FIGS. 10 to 18).
The efficacy was tested when a compound or a compositions of compounds was administered topically as an ointment or a solution. The study was performed on male albino rats (150-180 g body weight) to which an edema of paw was induced by injection of Complete Freunds Adjuvant (CFA). CFA is a composition of inactivated and dried Myobacteria tuberculoses, emulsified in mineral oil which is used as an immunopotentiator causing a painful reaction that lasts 7-8 days after subcutaneous injection.
The studies of comparative example 2 and inventive examples 5 to 8 were performed according to the following procedure: 50 μL of CFA were injected sub plantar into the right hind paw, inducing mechanical-hyperalgesia after 24 hours. […]
as §1, with “Pain is deemed to be perceived one the rat starts to withdraw the paw. This value (withdrawal threshold in gram) is the pressure at which the animal feels pain (cut-off 450 g).” left out

Row | SMILES | efficacy in CFA-PPT when administered alone (CFA-hindpaw inflammation; Lidocaine alone, dose range 10 mg/kg to 46.4 mg/kg ip) | efficacy in CFA-PPT when topically administered alone ([1]; Lidocaine alone, 30 mg/ml to 60 mg/ml) | efficacy in CFA-PPT when administered alone (CFA-hindpaw inflammation; Diclofenac alone, dose range 21.5 mg/kg to 100 mg/kg ip) | efficacy in CFA-PPT when topically administered alone ([1]; Diclofenac alone, 40 mg/ml to 80 mg/ml)
1 | CCN(CC)CC(=O)Nc1c(C)cccc1C [Lidocaine, 2-(diethylamino)-N-(2,6-dimethylphenyl)acetamide] | dose dependent efficacy | dose dependent efficacy |  | 
2 | O=C(O)Cc1ccccc1Nc1c(Cl)cccc1Cl [Diclofenac, 2-(2,6-dichloranilino) phenylacetic acid] |  |  | dose dependent efficacy | dose dependent efficacy
